Test results published in patent publication US20230233569A1 (Revolution Medicines, Inc., priority 2020, published 2023).
Where two headings read alike, the source gives them in different places.

How the values were obtained:
Capan-1 (K-Ras G12V) = assay: CellTiter-Glo cell viability assay, 5-day treatment; format: cell-based; conditions: Homo sapiens, CAPAN-1, 120 h
Method in brief: (§1)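 Five-day compound treatment of plated cells; luminescent read after ~30 min at RT. Percent-of-DMSO data fit to a four-parameter logistic model.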

NCI-H358 (K-Ras G12C) = assay: as above; format: cell-based; conditions: Homo sapiens, NCI-H358, 120 h
Method in brief: as §1

KRAS G12S = KRAS G12S (Homo sapiens, UniProt P01116+P62937, G12S); assay: Disruption of BRAF RBD interaction with Ras (FRET / MOA assay, with Cyclophilin A); format: biochemical
KRAS G12S, sequence (P01116 1-169 isoform P01116-2 G12S limits assumed): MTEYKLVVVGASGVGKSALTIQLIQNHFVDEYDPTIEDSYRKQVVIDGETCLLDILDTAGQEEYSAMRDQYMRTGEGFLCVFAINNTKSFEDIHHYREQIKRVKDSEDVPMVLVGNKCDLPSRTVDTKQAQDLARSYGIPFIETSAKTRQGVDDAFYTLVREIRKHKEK
KRAS G12S, sequence (P62937 whole entry): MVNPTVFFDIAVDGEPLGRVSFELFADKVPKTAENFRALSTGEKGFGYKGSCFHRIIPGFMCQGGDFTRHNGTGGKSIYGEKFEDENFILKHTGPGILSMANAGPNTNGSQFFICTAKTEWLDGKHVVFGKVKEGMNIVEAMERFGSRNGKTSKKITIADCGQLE
Method in brief: (§2)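 Measured via TR-FRET after 3 h at 25 °C with compound (30 μM top, threefold serial steps, ten concentrations) plus K-Ras, Cyclophilin A and BRAF RBD, followed by 1.5 h with anti-His europium (10 nM) and anti-GST allophycocyanin (50 nM). Signal loss versus DMSO gave IC50.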

KRAS G13C = KRAS G13C (Homo sapiens, UniProt P01116+P62937, G13C); assay: as above; format: biochemical
KRAS G13C, sequence (P01116 1-169 isoform P01116-2 G13C): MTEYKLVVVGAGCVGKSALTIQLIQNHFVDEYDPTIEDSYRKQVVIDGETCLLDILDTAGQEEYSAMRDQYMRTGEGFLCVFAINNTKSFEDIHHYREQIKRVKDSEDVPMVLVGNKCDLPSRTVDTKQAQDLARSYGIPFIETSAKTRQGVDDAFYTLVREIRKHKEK
KRAS G13C, sequence (P62937 whole entry): as the sequence (P62937 whole entry) above
Method in brief: as §2

NRAS G12C = NRAS G12C (Homo sapiens, UniProt P01111+P62937, G12C); assay: as above; format: biochemical
NRAS G12C, sequence (P01111 whole entry G12C): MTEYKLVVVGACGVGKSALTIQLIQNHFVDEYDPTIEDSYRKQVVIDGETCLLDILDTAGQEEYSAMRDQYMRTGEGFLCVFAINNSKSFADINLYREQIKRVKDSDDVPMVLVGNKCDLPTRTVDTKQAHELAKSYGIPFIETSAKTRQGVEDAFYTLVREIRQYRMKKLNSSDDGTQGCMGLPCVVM
NRAS G12C, sequence (P62937 whole entry): as the sequence (P62937 whole entry) above

KRAS G12D = KRAS G12D (Homo sapiens, UniProt P01116+P62937, G12D); assay: as above; format: biochemical
KRAS G12D, sequence (P01116 1-169 isoform P01116-2 G12D limits assumed): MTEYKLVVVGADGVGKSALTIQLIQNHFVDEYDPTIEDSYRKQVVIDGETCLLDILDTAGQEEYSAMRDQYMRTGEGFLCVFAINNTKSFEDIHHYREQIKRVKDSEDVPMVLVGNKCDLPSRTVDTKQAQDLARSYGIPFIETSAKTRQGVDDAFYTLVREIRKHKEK
KRAS G12D, sequence (P62937 whole entry): as the sequence (P62937 whole entry) above
Method in brief: as §2

KRAS WT = KRAS WT (Homo sapiens, UniProt P01116+P62937); assay: as above; format: biochemical
KRAS WT, sequence (P01116 1-169 isoform P01116-2 limits assumed): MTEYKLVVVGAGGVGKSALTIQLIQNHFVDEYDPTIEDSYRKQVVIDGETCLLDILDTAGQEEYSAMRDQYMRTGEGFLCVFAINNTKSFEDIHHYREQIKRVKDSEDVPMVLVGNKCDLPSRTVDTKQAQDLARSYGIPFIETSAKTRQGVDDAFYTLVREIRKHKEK
KRAS WT, sequence (P62937 whole entry): as the sequence (P62937 whole entry) above
Method in brief: as §2

KRAS G12V = KRAS G12V (Homo sapiens, UniProt P01116+P62937, G12V); assay: as above; format: biochemical
KRAS G12V, sequence (P01116 1-169 isoform P01116-2 G12V limits assumed): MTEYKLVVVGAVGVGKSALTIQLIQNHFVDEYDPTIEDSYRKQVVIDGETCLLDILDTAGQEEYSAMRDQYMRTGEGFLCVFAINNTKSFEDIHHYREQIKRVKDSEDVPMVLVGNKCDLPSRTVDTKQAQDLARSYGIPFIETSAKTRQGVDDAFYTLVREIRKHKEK
KRAS G12V, sequence (P62937 whole entry): as the sequence (P62937 whole entry) above
Method in brief: as §2

KRAS G12C = KRAS G12C (Homo sapiens, UniProt P01116+P62937, G12C); assay: as above; format: biochemical
KRAS G12C, sequence (P01116 1-169 isoform P01116-2 G12C): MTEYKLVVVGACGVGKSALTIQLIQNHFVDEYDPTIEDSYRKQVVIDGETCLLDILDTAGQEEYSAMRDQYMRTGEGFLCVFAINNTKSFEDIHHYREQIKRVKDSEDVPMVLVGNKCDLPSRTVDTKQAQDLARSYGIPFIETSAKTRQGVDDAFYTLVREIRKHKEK
KRAS G12C, sequence (P62937 whole entry): as the sequence (P62937 whole entry) above
Method in brief: as §2

KRAS G13D = KRAS G13D (Homo sapiens, UniProt P01116+P62937, G13D); assay: as above; format: biochemical
KRAS G13D, sequence (P01116 1-169 isoform P01116-2 G13D limits assumed): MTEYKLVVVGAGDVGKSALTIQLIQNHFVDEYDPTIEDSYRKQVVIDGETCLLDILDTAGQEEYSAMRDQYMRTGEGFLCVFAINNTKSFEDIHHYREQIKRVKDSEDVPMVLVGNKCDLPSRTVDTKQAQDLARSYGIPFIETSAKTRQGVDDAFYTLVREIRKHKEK
KRAS G13D, sequence (P62937 whole entry): as the sequence (P62937 whole entry) above
Method in brief: as §2

NRAS Q61K = NRAS Q61K (Homo sapiens, UniProt P01111+P62937, Q61K); assay: as above; format: biochemical; conditions: NRAS Q61K; read-out: NRAS Q61K FRET data IC50
NRAS Q61K, sequence (P01111 whole entry Q61K): as the sequence (P01111 whole entry G12C) above, with C12G, Q61K counted along it
NRAS Q61K, sequence (P62937 whole entry): as the sequence (P62937 whole entry) above
Method in brief: (§3)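 IC50 reflects compound-driven Ras:Cyclophilin A ternary complex displacing BRAF RBD, read as lowered TR-FRET ratio relative to DMSO after Eu anti-His (10 nM) and APC anti-GST (50 nM) detection for 1.5 h. Prior incubation 3 h, 25° C, with 12.5 nM GMPPNP-loaded Ras, 50 nM BRAF RBD, 25 μM Cyclophilin A; top compound 30 μM.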

KRAS Q61H = KRAS Q61H (Homo sapiens, UniProt P01116+P62937, Q61H); assay: as above; format: biochemical; conditions: KRAS Q61H; read-out: KRAS Q61H FRET data IC50
KRAS Q61H, sequence (P01116 1-169 isoform P01116-2 Q61H limits assumed): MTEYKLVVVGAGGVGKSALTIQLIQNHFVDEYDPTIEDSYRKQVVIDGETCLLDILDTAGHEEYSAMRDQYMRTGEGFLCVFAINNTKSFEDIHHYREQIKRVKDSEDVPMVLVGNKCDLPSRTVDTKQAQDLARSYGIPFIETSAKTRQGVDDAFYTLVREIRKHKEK
KRAS Q61H, sequence (P62937 whole entry): as the sequence (P62937 whole entry) above
Method in brief: as §3

NRAS WT = NRAS WT (Homo sapiens, UniProt P01111+P62937); assay: as above; format: biochemical; conditions: NRAS WT; read-out: NRAS WT FRET data IC50
NRAS WT, sequence (P01111 whole entry): as the sequence (P01111 whole entry G12C) above, with C12G counted along it
NRAS WT, sequence (P62937 whole entry): as the sequence (P62937 whole entry) above
Method in brief: as §3

NRAS Q61R = NRAS Q61R (Homo sapiens, UniProt P01111+P62937, Q61R); assay: as above; format: biochemical; conditions: NRAS Q61R; read-out: NRAS Q61R FRET data IC50
NRAS Q61R, sequence (P01111 whole entry Q61R): as the sequence (P01111 whole entry G12C) above, with C12G, Q61R counted along it
NRAS Q61R, sequence (P62937 whole entry): as the sequence (P62937 whole entry) above
Method in brief: as §3

[1] = 5-day treatment, read-out: Capan-1 Cell Viability assay data (K-Ras G12V, IC50)
[2] = 5-day treatment, read-out: H358 Cell Viability assay data (K-Ras G12C, IC50)
[3] = read-out: KRAS G12S FRET data, IC50
[4] = read-out: KRAS G13C FRET data, IC50
[5] = NRAS G12C, read-out: NRAS G12C FRET data IC50
[6] = read-out: KRAS G12D FRET data, IC50
[7] = KRAS WT, read-out: KRAS WT FRET data IC50
[8] = KRAS G12V, read-out: KRAS G12V FRET data IC50
[9] = read-out: KRAS G12C FRET data, IC50
[10] = KRAS G13D, read-out: KRAS G13D FRET data IC50

Row | SMILES | IC50 (Capan-1 (K-Ras G12V); [1]) [µM] | IC50 (NCI-H358 (K-Ras G12C); [2]) [µM] | IC50 (KRAS G12S; [3]) [nM] | IC50 (KRAS G13C; [4]) [nM] | IC50 (NRAS G12C; [5]) [nM] | IC50 (KRAS G12D; [6]) [nM] | IC50 (KRAS WT; [7]) [nM] | IC50 (KRAS G12V; [8]) [nM] | IC50 (KRAS G12C; [9]) [nM] | IC50 (KRAS G13D; [10]) [nM] | IC50 (NRAS Q61K) [nM] | IC50 (KRAS Q61H) [nM] | IC50 (NRAS WT) [nM] | IC50 (NRAS Q61R) [nM] | further results
1 | CCn1c(-c2cccnc2[C@H](C)OC)c2c3cc(ccc31)-c1csc(n1)C[C@H](NC(=O)[C@H]1CCO1)C(=O)N1CCC[C@H](N1)C(=O)OCC(C)(C)C2 [Example A360] | 0.1 to 1 | 0.1 to 1 | 100 to 1000 | 100 to 1000 | 100 to 1000 | 1000 to 10000 | 100 to 1000 | 100 to 1000 | 100 to 1000 | 1000 to 10000 | 100 to 1000 | 100 to 1000 | 100 to 1000 | 1000 to 10000 | 
2 | CCn1c(-c2cccnc2[C@H](C)OC)c2c3cc(ccc31)-c1cc(O)cc(c1)C[C@H](NC(=O)[C@H](C(C)C)N(C)C(=O)[C@@H]1OCC[C@@H]1c1cccnc1)C(=O)N1CCC[C@H](N1)C(=O)OCC(C)(C)C2 (atropisomer, axis not shown) [Example A546] | 0.01 to 0.1 | < 0.01 | 10 to 100 | 10 to 100 | 10 to 100 | 10 to 100 | 10 to 100 | 10 to 100 | < 10 | 10 to 100 | 10 to 100 | < 10 | 10 to 100 | 10 to 100 | 
3 | CCn1c(-c2cccnc2[C@H](C)OC)c2c3cc(ccc31)-c1csc(n1)C[C@H](NC(=O)[C@H](C(C)C)N(C)C(=O)N1CC[C@H]3CN(C)C[C@H]31)C(=O)N1CCC[C@H](N1)C(=O)OCC(C)(C)C2 (atropisomer, axis not shown) [Example A471] | 0.1 to 1 | 0.1 to 1 | 100 to 1000 | 100 to 1000 | 10 to 100 | 100 to 1000 | 100 to 1000 | 100 to 1000 | 10 to 100 | 100 to 1000 | 10 to 100 | 10 to 100 | 10 to 100 | 100 to 1000 | 
4 | CCn1c(-c2cccnc2[C@H](C)OC)c2c3cc(ccc31)-c1csc(n1)C[C@H](NC(=O)[C@H](C(C)C)N(C)C(=O)N1CC3CC(C1)N3C)C(=O)N1CCC[C@H](N1)C(=O)OCC(C)(C)C2 [Example A284] |  |  | 100 to 1000 | 100 to 1000 | 100 to 1000 | 1000 to 10000 | 100 to 1000 | 1000 to 10000 | 100 to 1000 | 100 to 1000 | 100 to 1000 | 100 to 1000 | 100 to 1000 | 1000 to 10000 | IC50 (Capan-1 (K-Ras G12V); read-out: Capan-1 Cell Viability assay data (K-Ras G12V, IC50, uM)): 0.1 to 1 µM; IC50 (NCI-H358 (K-Ras G12C); read-out: H358 Cell Viability assay data (K-Ras G12C, IC50, uM), 5-day treatment): 0.1 to 1 µM
5 | CCn1c(-c2cccnc2[C@H](C)OC)c2c3cc(ccc31)-c1csc(n1)C[C@H](NC(=O)[C@H](C(C)C)N(C)C(=O)N1CCC[C@H](CN(C)C)C1)C(=O)N1CCC[C@H](N1)C(=O)OCC(C)(C)C2 (atropisomer, axis not shown) [Example A573] | 0.01 to 0.1 | < 0.01 |  |  |  |  |  |  |  |  | 10 to 100 | 10 to 100 | 10 to 100 | 100 to 1000 | IC50 (KRAS G12S; KRAS G12S FRET data, IC50): 10 to 100 nM; IC50 (KRAS G13C; KRAS G13C FRET data, IC50): 10 to 100 nM; IC50 (NRAS G12C; NRAS G12C FRET data IC50, NRAS G12C): 10 to 100 nM; IC50 (KRAS G12D; KRAS G12D FRET data, IC50): 10 to 100 nM; IC50 (KRAS WT; KRAS WT FRET data IC50, KRAS WT): 10 to 100 nM; IC50 (KRAS G12V; KRAS G12V FRET data IC50, KRAS G12V): 100 to 1000 nM; IC50 (KRAS G12C; KRAS G12C FRET data, IC50): 10 to 100 nM; IC50 (KRAS G13D; KRAS G13D FRET data IC50, KRAS G13D): 10 to 100 nM
6 | CCn1c(-c2cccnc2[C@H](C)OC)c2c3cc(ccc31)-c1csc(n1)C[C@H](NC(=O)[C@H](C(C)C)N(C)C(=O)N1CC[C@H]1C(=O)NC)C(=O)N1CC(C)C[C@H](N1)C(=O)OCC(C)(C)C2 (stereo partly shown) [Example A282] | 0.1 to 1 | 0.1 to 1 | 1000 to 10000 | 1000 to 10000 | 100 to 1000 | 1000 to 10000 | 1000 to 10000 | 1000 to 10000 | 100 to 1000 | 1000 to 10000 | 1000 to 10000 | 100 to 1000 | 1000 to 10000 | 1000 to 10000 | 
7 | CCn1c(-c2cccnc2[C@H](C)OC)c2c3cc(ccc31)-c1csc(n1)C[C@H](NC(=O)[C@H](C(C)C)N(C)C(=O)N1CCOCC1)C(=O)N1CCC[C@H](N1)C(=O)OCC(C)(C)C2 (atropisomer, axis not shown) [Example A372] | 0.01 to 0.1 | < 0.01 | 100 to 1000 | 100 to 1000 | 10 to 100 | 100 to 1000 | 10 to 100 | 100 to 1000 | 10 to 100 | 100 to 1000 | 10 to 100 | 10 to 100 | 10 to 100 | 10 to 100 | 
8 | CCn1c(-c2cccnc2[C@H](C)OC)c2c3cc(ccc31)-c1csc(n1)C[C@H](NC(=O)[C@H](C(C)C)N(C)C(=O)N1CC([C@@H](C)N(C)C)C1)C(=O)N1CCC[C@H](N1)C(=O)OCC(C)(C)C2 (atropisomer, axis not shown) [Example A458] | 0.01 to 0.1 | 0.01 to 0.1 | 100 to 1000 | 100 to 1000 | 10 to 100 | 100 to 1000 | 100 to 1000 | 100 to 1000 | 10 to 100 | 100 to 1000 | 10 to 100 | 100 to 1000 | 100 to 1000 | 100 to 1000 | 
